Measured values taken from patent publication US20240158446A1, “CYCLIC COMPOUND HAVING SELECTIVE INHIBITORY ACTION ON KRAS OVER HRAS AND NRAS” (CHUGAI SEIYAKU KABUSHIKI KAISHA, priority 2021, published 2024).
Where two headings read alike, the source gives them in different places. Where a SMILES comes first, the peptide text is derived from it. Bridges are numbered along the chain shown (N, C = ends). [ ]: non-standard residue; d: D form. hPhe(3-Cl-4-CF3) = N[C@@H](CCc1ccc(C(F)(F)F)c(Cl)c1)C(=O)O; NPrPhe(4-CF3) = CCCN[C@@H](Cc1ccc(C(F)(F)F)cc1)C(=O)O; NMeGly(cPent) = CN[C@H](C(=O)O)C1CCCC1; NMeD = CN[C@@H](CC(=O)O)C(=O)O; NMeL = CN[C@@H](CC(C)C)C(=O)O; Ac5c = NC1(C(=O)O)CCCC1; NEtG = CCNCC(=O)O; Sar = CNCC(=O)O

Experiments:
[1] = biological target: GDP-bound KRAS wild-type protein (Homo sapiens, UniProt P01116); assay: Binding to KRAS by surface plasmon resonance (SPR), Single Cycle Kinetics
[2] = biological target: GDP-bound NRAS wild-type protein (Homo sapiens, UniProt P01111); assay: Binding to NRAS by surface plasmon resonance (SPR), Single Cycle Kinetics; conditions: for NRAS/KRAS (ratio of KD value with respect to GDP-bound NRAS wild-type protein to KD value with respect to KRAS): SPR KD ratio NRAS/KRAS, class symbols
[3] = biological target: GDP-bound HRAS wild-type protein (Homo sapiens, UniProt P01112); assay: Binding to HRAS by surface plasmon resonance (SPR), Single Cycle Kinetics; conditions: for HRAS/KRAS (ratio of KD value with respect to GDP-bound HRAS wild-type protein to KD value with respect to KRAS): SPR KD ratio HRAS/KRAS, class symbols
[4] = system: human lung cancer strain NCI-H441;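 note: cell proliferation inhibition after four days measured by CellTiter-Glo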
[5] = SPR Single Cycle Kinetics, GDP-bound KRAS wild-type protein, 1:1 binding model, read-out: KRAS KD
[6] = SPR, GDP-bound NRAS wild-type protein vs GDP-bound KRAS wild-type protein
[7] = SPR, GDP-bound HRAS wild-type protein vs GDP-bound KRAS wild-type protein
[8] = SPR, Single Cycle Kinetics, GDP-bound KRAS wild-type protein, read-out: KRAS KD
[9] = read-out: NCI-H441 cell proliferation inhibitory activity, 50% proliferation inhibitory concentration (IC50 value), NCI-H441, four days, CellTiter-Glo
[10] = SPR, Single Cycle Kinetics, 1:1 binding model, GDP-bound KRAS wild-type protein, read-out: KRAS KD
[11] = SPR, GDP-bound NRAS wild-type protein vs GDP-bound KRAS wild-type protein, KD ratio class
[12] = SPR, GDP-bound HRAS wild-type protein vs GDP-bound KRAS wild-type protein, KD ratio class

Chain of GDP-bound KRAS wild-type protein (P01116 whole entry): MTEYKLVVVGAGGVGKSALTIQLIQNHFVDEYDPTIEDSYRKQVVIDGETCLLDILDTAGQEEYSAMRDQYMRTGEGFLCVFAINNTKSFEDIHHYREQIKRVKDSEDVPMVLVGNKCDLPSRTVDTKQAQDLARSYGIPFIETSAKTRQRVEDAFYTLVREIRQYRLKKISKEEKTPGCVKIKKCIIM
Chain of GDP-bound HRAS wild-type protein (P01112 whole entry): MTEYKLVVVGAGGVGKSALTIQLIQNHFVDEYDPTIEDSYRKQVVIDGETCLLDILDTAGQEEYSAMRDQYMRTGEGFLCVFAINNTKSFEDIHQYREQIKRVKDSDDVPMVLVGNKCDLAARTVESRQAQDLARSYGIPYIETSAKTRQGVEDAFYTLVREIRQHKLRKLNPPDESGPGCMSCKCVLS
Chain of GDP-bound NRAS wild-type protein (P01111 whole entry): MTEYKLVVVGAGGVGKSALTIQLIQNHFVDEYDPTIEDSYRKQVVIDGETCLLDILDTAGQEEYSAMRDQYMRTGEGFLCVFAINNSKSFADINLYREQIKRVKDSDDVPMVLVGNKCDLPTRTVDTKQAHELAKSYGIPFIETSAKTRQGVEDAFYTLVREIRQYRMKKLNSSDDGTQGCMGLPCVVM

Row | Structure (SMILES) | Kd [1, 5] | IC50 [4] | Kd [1, 8] | NRAS/KRAS (ratio of KD value for NRAS to KD value for KRAS) [2, 6] | HRAS/KRAS (ratio of KD value for HRAS to KD value for KRAS) [3, 7] | also measured
1 | CCC[C@H]1C(=O)N[C@@H](CC(C)C)C(=O)N(CC)CC(=O)N(C)[C@H]2C/C=C\CCN(C2=O)[C@@H](Cc2ccc(C)cc2)C(=O)N(C)CC(=O)N[C@@H](CCc2ccc(C(F)(F)F)c(OC)c2)C(=O)N2C[C@H](OCC)C[C@H]2C(=O)NC2(CCC2)C(=O)N(C)[C@@H](C2CCCC2)C(=O)N(C)[C@H](C(=O)N(C)C)CC(=O)N1C [PP2540] | 4.6 nM | 562 nM |  |  |  | NRAS/KRAS (ratio of KD value with respect to GDP-bound NRAS wild-type protein to KD value with respect to KRAS) [2]: A (a compound having 10 or more and less than 20 is denoted as A); HRAS/KRAS (ratio of KD value with respect to GDP-bound HRAS wild-type protein to KD value with respect to KRAS) [3]: B (a compound having 3 or more and less than 10 is denoted as B)
2 | CCCN1C(=O)CN(C)C(=O)CN(CC)C(=O)[C@H]([C@@H](C)CC)NC(=O)[C@H](CC(C)C)N(C)C(=O)C[C@@H](C(=O)N(C)C)N(C)C(=O)[C@H](C2CCCC2)N(C)C(=O)C2(CCCC2)NC(=O)[C@@H]2CCCN2C(=O)[C@H](CCc2ccc(C(F)(F)F)c(Cl)c2)NC(=O)CN(C)C(=O)[C@@H]1Cc1ccc(C(F)(F)F)cc1 [PP0423] ([NMeL]I[NEtG][Sar][NPrPhe(4-CF3)][Sar][hPhe(3-Cl-4-CF3)]P[Ac5c][NMeGly(cPent)][NMeD]-NMe2; lactam N-11) | 0.18 nM | 7.1 nM |  |  |  | NRAS/KRAS (ratio of KD value with respect to NRAS to KD value with respect to KRAS) [2, 6]: B (a compound having 3 or more and less than 10 is denoted as B); HRAS/KRAS (ratio of KD value with respect to HRAS to KD value with respect to KRAS) [3, 7]: C (A compound having a KD ratio of 0.1 or more and less than 3 is denoted as C)
3 | CCCO[C@@H]1C[C@H]2C(=O)NC3(CC(C)(C)C3)C(=O)N(C)[C@@H](C3CCCC3)C(=O)N(C)[C@H](C(=O)N(C)C)CC(=O)N(C)[C@H]3CCCCc4ccc(cc4)C[C@@H](C(=O)N(C)CC(=O)N[C@@H](CCc4ccc(C(F)(F)F)c(OC)c4)C(=O)N2C1)N1CC/C=C\C[C@@H](C1=O)N(C)C(=O)CN(C)C(=O)[C@H]([C@@H](C)CC)NC3=O [PP3077] |  |  | 0.04 nM | A (a compound having 10 or more and less than 20 is denoted as A) | B (a compound having 3 or more and less than 10 is denoted as B) | ratio of the KD value with respect to GDP-bound NRAS wild-type protein to the KD value with respect to KRAS ([2]; SPR): A (a compound having 10 or more and less than 20 is denoted as A); ratio of the KD value with respect to GDP-bound HRAS wild-type protein to the KD value with respect to KRAS ([3]; SPR): B (a compound having 3 or more and less than 10 is denoted as B); IC50 [4, 9]: 0.8 nM
4 | CCCO[C@H](C)[C@@H]1NC(=O)[C@H](COCC)N(C)C(=O)C[C@@H](C(=O)N(C)CC)N(C)C(=O)[C@H](C2CCCC2)N(C)C(=O)C2(CC(C)(C)C2)NC(=O)[C@@H]2C[C@@H](OCC)CN2C(=O)[C@H](CCc2cc(F)c(C(F)(F)F)c(F)c2)NC(=O)CN(C)C(=O)[C@H](Cc2ccc(C)cc2)N2CC/C=C\C[C@@H](C2=O)N(C)C(=O)[C@@H]2CCCN2C1=O [PP2436] |  | 126 nM | 1.6 nM | A (a compound having 10 or more and less than 20 is denoted as A) | A (a compound having 10 or more and less than 20 is denoted as A) | 
5 | CCO[C@@H]1C[C@H]2C(=O)NC3(CCC3)C(=O)N(C)[C@@H](C(CC)CC)C(=O)N(C)[C@H](C(=O)N(C)C)CC(=O)N(C)[C@@H](CC)C(=O)N[C@@H]([C@@H](C)CC)C(=O)N(C)CC(=O)N(C)[C@H]3C/C=C\CCN(C3=O)[C@@H](Cc3ccc(C(F)(F)F)cc3)C(=O)N(C)CC(=O)N[C@@H](CCc3ccc4sccc4c3)C(=O)N2C1 [PP1223] |  | 117 nM |  |  |  | Kd [1, 10]: 1.2 nM; NRAS/KRAS (ratio of KD value for NRAS to KD value for KRAS) [2, 11]: AA (a compound having 20 or more is denoted as AA); HRAS/KRAS (ratio of KD value for HRAS to KD value for KRAS) [3, 12]: A (a compound having 10 or more and less than 20 is denoted as A)
6 | CCC(CC)[C@H]1C(=O)N(C)[C@H](C(=O)N(C)C)CC(=O)N(C)[C@@H](COC)C(=O)N[C@@H]([C@@H](C)CC)C(=O)N(C2CC2)CC(=O)N(C)[C@H]2C/C=C\CCN(C2=O)[C@@H](CC2CCC(F)(F)CC2)C(=O)N(C)CC(=O)N[C@@H](CCc2ccc(Cl)c(Cl)c2)C(=O)N2C[C@H](OC(C)C)C[C@H]2C(=O)NC2(CC(C)(C)C2)C(=O)N1C [PP2525] | 3.8 nM | 142 nM |  |  |  | NRAS/KRAS (ratio of KD value with respect to GDP-bound NRAS wild-type protein to KD value with respect to KRAS) [2]: AA (a compound having 20 or more is denoted as AA); HRAS/KRAS (ratio of KD value with respect to GDP-bound HRAS wild-type protein to KD value with respect to KRAS) [3]: A (a compound having 10 or more and less than 20 is denoted as A)
7 | CCC[C@H]1C(=O)N[C@@H](CC(C)C)C(=O)N2C[C@@H](OC)C[C@H]2C(=O)N(C)[C@H]2C/C=C\CCN(C2=O)[C@@H](Cc2ccc(C)cc2)C(=O)N(C)CC(=O)N[C@@H](CCc2cc(F)c(C(F)(F)F)c(F)c2)C(=O)N2C[C@H](OCC)C[C@H]2C(=O)NC2(CCC2)C(=O)N(C)[C@@H](C2CCCC2)C(=O)N(C)[C@H](C(=O)N(C)C)CC(=O)N1C [PP2547] | 4.4 nM | 1060 nM |  |  |  | NRAS/KRAS (ratio of KD value with respect to GDP-bound NRAS wild-type protein to KD value with respect to KRAS) [2]: A (a compound having 10 or more and less than 20 is denoted as A); HRAS/KRAS (ratio of KD value with respect to GDP-bound HRAS wild-type protein to KD value with respect to KRAS) [3]: B (a compound having 3 or more and less than 10 is denoted as B)
8 | CCO[C@@H]1C[C@H]2C(=O)NC3(CCC3)C(=O)N(C)[C@@H](C3CCCC3)C(=O)N(C)[C@H](C(=O)N3CCOCC3)CC(=O)N(C)[C@@H](CC3CCCCC3)C(=O)N[C@@H]([C@@H](C)CC)C(=O)N(C)CC(=O)N(C)[C@H]3C/C=C\CCN(C3=O)[C@@H](Cc3ccc(C(F)(F)F)cc3)C(=O)N(C)CC(=O)N[C@@H](CCc3cc(F)c(C(F)(F)F)c(F)c3)C(=O)N2C1 [PP1418] |  | 29.9 nM |  |  |  | Kd [1, 10]: 0.24 nM; NRAS/KRAS (ratio of KD value for NRAS to KD value for KRAS) [2, 11]: AA (a compound having 20 or more is denoted as AA); HRAS/KRAS (ratio of KD value for HRAS to KD value for KRAS) [3, 12]: A (a compound having 10 or more and less than 20 is denoted as A)
9 | CCC[C@H]1C(=O)N[C@@H]([C@@H](C)CC)C(=O)N(C)CC(=O)N(C)[C@H]2C/C=C\CCN(C2=O)[C@@H](Cc2ccc(C(F)(F)F)cc2)C(=O)N(C)CC(=O)N[C@@H](CCc2ccc(C(F)(F)F)c(OC)c2)C(=O)N2C[C@H](OCC)C[C@H]2C(=O)N(C)C2(CCC2)C(=O)N(C)[C@@H](C2CCCC2)C(=O)N(C)[C@H](C(=O)N2CCCC2)CC(=O)N1C [PP3105, (2S,8S,12R,14S,20S,23S,27S,30S,36S,38Z)-20-cyclopentyl-12-ethoxy-8-[2-[3-methoxy-4-(trifluoromethyl)phenyl]ethyl]-4,16,19,22,26,32,35-heptamethyl-30-[(1S)-1-methylpropyl]-27-propyl-23-(pyrrolidine-1-carbonyl)-2-[[4-(trifluoromethyl)phenyl]methyl]spiro[1,4,7,10,16,19,22,26,29,32,35-undecazatricyclo[34.5.1.0^10,14]dotetracont-38-ene-17,1′-cyclobutane]-3,6,9,15,18,21,25,28,31,34,42-undecone] |  |  | 0.06 nM | AA (a compound having 20 or more is denoted as AA) | A (a compound having 10 or more and less than 20 is denoted as A) | Kd ([1]; SPR, Single Cycle Kinetics, 1:1 binding model, read-out: KD value with respect to GDP-bound KRAS wild-type protein): 0.06 nM; ratio of the KD value with respect to GDP-bound NRAS wild-type protein to the KD value with respect to KRAS ([2]; SPR): AA (a compound having 20 or more is denoted as AA); ratio of the KD value with respect to GDP-bound HRAS wild-type protein to the KD value with respect to KRAS ([3]; SPR): A (a compound having 10 or more and less than 20 is denoted as A); IC50 [4, 9]: 2.5 nM
10 | CCC[C@H]1C(=O)N[C@@H](CC(C)C)C(=O)N(CC)CC(=O)N(C)[C@H]2C/C=C\CCN(C2=O)[C@@H](Cc2ccc(C)cc2)C(=O)N(C)CC(=O)N[C@@H](CCc2ccc(C(F)(F)F)c(OC)c2)C(=O)N2C[C@H](OCC)C[C@H]2C(=O)NC2(CC(C)(C)C2)C(=O)N(C)[C@@H](C2CCCC2)C(=O)N(C)[C@H](C(=O)N(C)C)CC(=O)N1C [PP2518] |  | 81.2 nM | 3.3 nM | A (a compound having 10 or more and less than 20 is denoted as A) | A (a compound having 10 or more and less than 20 is denoted as A) | 
11 | CC[C@H](C)[C@@H]1NC(=O)[C@H](COC)N(C)C(=O)C[C@@H](C(=O)N2CCOCC2)N(C)C(=O)[C@H](C2CCCC2)N(C)C(=O)C2(CCC2)NC(=O)[C@@H]2CCCN2C(=O)[C@H](CCc2cc(F)c(C(F)(F)F)c(F)c2)NC(=O)CN(C)C(=O)[C@H](Cc2ccc(C(F)(F)F)cc2)N2CCCCC[C@@H](C2=O)N(C)C(=O)CNC1=O [PP0860] |  | 143 nM | 1.1 nM | B (a compound having 3 or more and less than 10 is denoted as B) | B (a compound having 3 or more and less than 10 is denoted as B) | 
